40 compounds from patent US4678783A, “Substituted isoquinolinesulfonyl compounds” (Asahi Kasei Kogyo Kabushiki Kaisha, priority 1984, dated 1987) can be followed below.

Test [1] has as its system mesenteric artery of a rabbit. In words: Relaxation of Mesenteric Artery (KCl-contracted spiral strip). Particulars: Oryctolagus cuniculus; concentration of the hydrochloride attaining 50% of complete relaxation; rabbit mesenteric artery contracted with KCl; read-out: ED50 (the source's name). On the set-up: species or system rabbit of Japanese local variety. The procedure: A rabbit of Japanese local variety weighing about 3 kg was subjected to blood-letting to death. Then, abdomen of the rabbit was dissected to pick up a mesenteric artery. […] Thus, the shrinkage and relaxation of the artery was ready to be measured as a load on the transducer. To the organ bath, KCl was added in an amount which makes the artery shrink at a half length that in 15 to 20 mM aqueous solution. Then, hydrochlorides of the compounds of the present invention were added to the organ bath to observe relaxation effect on the artery.
Effect of the compounds of the present invention on relaxation of mesenteric artery was examined according to the method as mentioned hereinbefore.

Test [2] concerns male spontaneously hypertensive rats (SHR). In words: Reduction of Blood Pressure (systolic, tail plethysmographic method, oral). In kind it is in vivo, rat (SHR, Wister Kyoto). Here is the method:
Male spontaneously hypertensive rats (SHR, Wister Kyoto) weighing 300 to 350 g were used. Systolic blood pressure was measured indirectly by the tail plethysmographic method in conscious SHR, just prior to, and 1, 2, 4 and 6 hours after oral administration of test drugs. Test drugs, dissolved in deionized water, were administered orally in a volume of 10 ml-solution/kg-rat. Reduction in systolic blood pressure (ΔP, mmHg) was calculated by substracting a systolic blood pressure after administration from that just prior to administration.
Effect of the compounds of the present invention on reduction of blood pressure was examined according to the method as mentioned hereinbefore.

On to `CC1CNCCCN1S(=O)(=O)c1cccc2cnccc12` (stereo not drawn) [Compound (2), 1-(5-isoquinolinesulfonyl)-2-methylhomopiperazine], for which, in test [1], the EC50 is 4 µM. In the case of `CC1CNCCN(S(=O)(=O)c2cccc3cnccc23)C1` (stereo not drawn) [Compound (4), 1-(5-isoquinolinesulfonyl)-6-methylhomopiperazine], in test [1], the EC50 worked out at 1.6 µM.

Turning to `CC1NCCCN(S(=O)(=O)c2cccc3cnccc23)C1C` (stereo not drawn) [Compound (5), 1-(5-isoquinolinesulfonyl)-2,3-dimethylhomopiperazine], the EC50 in test [1] is 8 µM. Turning to `CC1(C)CN(S(=O)(=O)c2cccc3cnccc23)CCCN1` [Compound (6), 1-(5-isoquinolinesulfonyl)-3,3-dimethylhomopiperazine], the EC50 in test [1] came to 10 µM. On the same count and under the same terms, to `CCC1CN(S(=O)(=O)c2cccc3cnccc23)CCCN1` (stereo not drawn) [Compound (7), 1-(5-isoquinolinesulfonyl)-3-ethylhomopiperazine] belongs 6 µM. Same read-out and setting: then `CC(C)CC1CN(S(=O)(=O)c2cccc3cnccc23)CCCN1` (stereo not drawn) [Compound (9), 1-(5-isoquinolinesulfonyl)-3-isobutylhomopiperazine], with 4 µM; and `O=S(=O)(c1cccc2cnccc12)N1CCCNC(c2ccccc2)C1` (stereo not drawn) [Compound (10), 1-(5-isoquinolinesulfonyl)-3-phenylhomopiperazine], with 12 µM; and `CCC1CNCCN(S(=O)(=O)c2cccc3cnccc23)C1` (stereo not drawn) [Compound (12), 1-(5-isoquinolinesulfonyl)-6-ethylhomopiperazine], with 3 µM.

For `CCCC1CNCCN(S(=O)(=O)c2cccc3cnccc23)C1` (stereo not drawn) [Compound (13), 1-(5-isoquinolinesulfonyl)-6-propylhomopiperazine], the EC50 in test [1] amounted to 11 µM. Same read-out and setting: to `CCCCCCC1CNCCN(S(=O)(=O)c2cccc3cnccc23)C1` (stereo not drawn) [Compound (16), 1-(5-isoquinolinesulfonyl)-6-hexylhomopiperazine] belongs 12 µM; to `CN1CCCN(S(=O)(=O)c2cccc3cnccc23)CC1` [Compound (19), 1-(5-isoquinolinesulfonyl)-4-methylhomopiperazine], 8 µM. Regarding `CCN1CCCN(S(=O)(=O)c2cccc3cnccc23)CC1` [Compound (20), 1-(5-isoquinolinesulfonyl)-4-ethylhomopiperazine], in test [1], the EC50 was determined as 11 µM.

Turning to `CCCCN1CCCN(S(=O)(=O)c2cccc3cnccc23)CC1` [Compound (22), 1-(5-isoquinolinesulfonyl)-4-butylhomopiperazine], the EC50 in test [1] is 13 µM. Same read-out and setting: to `CCCCCCN1CCCN(S(=O)(=O)c2cccc3cnccc23)CC1` [Compound (23), 1-(5-isoquinolinesulfonyl)-4-hexylhomopiperazine] belongs 12 µM.

As to `NCCNS(=O)(=O)c1cccc2c(Cl)nccc12` [Compound (24), N-(2-aminoethyl)-1-chloro-5-isoquinolinesulfonamide], in test [1], the EC50 came to 5 µM. In addition, in test [2] (50 mg/kg), the “ΔPmax (maximally reduced blood pressure)” value came out at 70 mmHg. Turning to `NCCCCNS(=O)(=O)c1cccc2c(Cl)nccc12` [Compound (25), N-(4-aminobuthyl)-1-chloro-5-isoquinolinesulfonamide], in test [1], the EC50 is 7 µM. Moreover, in test [2] (100 mg/kg), the “ΔPmax (maximally reduced blood pressure)” value is listed as 50 mmHg.

For the compound `CC(CN)NS(=O)(=O)c1cccc2c(Cl)nccc12` (stereo not drawn) [Compound (26), N-(2-amino-1-methylethyl)-1-chloro-5-isoquinolinesulfonamide], the EC50 in test [1] is 4 µM. Moreover, the “ΔPmax (maximally reduced blood pressure)” value in test [2] (50 mg/kg) was 53 mmHg. For the compound `CCCCC(CN)NS(=O)(=O)c1cccc2c(Cl)nccc12` (stereo not drawn) [Compound (27), N-(1-aminomethylpentyl)-1-chloro-5-isoquinolinesulfonamide], in test [1], the EC50 was determined as 4 µM. The “ΔPmax (maximally reduced blood pressure)” value in test [2] (50 mg/kg) is 45 mmHg.

With `CC(C)C(N)CNS(=O)(=O)c1cccc2c(Cl)nccc12` (stereo not drawn) [Compound (28), N-(2-amino-3-methylbutyl)-1-chloro-5-isoquinolinesulfonamide], in test [1], the EC50 amounted to 10 µM. In addition, the “ΔPmax (maximally reduced blood pressure)” value in test [2] (50 mg/kg) is 58 mmHg. The like results for `CCCCN(CCCC)CCCNS(=O)(=O)c1cccc2c(Cl)nccc12` [Compound (29), N-(3-di-n-butylaminopropyl)-1-chloro-5-isoquinolinesulfonamide] were, in that order, 11 µM and 43 mmHg.

As for `CN(CCNS(=O)(=O)c1cccc2c(Cl)nccc12)C1CCCCC1` [Compound (30), N-[2-(N-cyclohexyl-N-methylamino)ethyl]-1-chloro-5-isoquinolinesulfonamide], the EC50 in test [1] is 13 µM. The “ΔPmax (maximally reduced blood pressure)” value in test [2] (50 mg/kg) came out at 54 mmHg. In the case of `N=C(N)NCCCCNS(=O)(=O)c1cccc2c(Cl)nccc12` [Compound (32), N-(4-guanidinobutyl)-1-chloro-5-isoquinolinesulfonamide], the EC50 in test [1] was 4 µM. Further, the “ΔPmax (maximally reduced blood pressure)” value in test [2] (100 mg/kg) amounted to 38 mmHg.

As to `CC(CNC(=N)N)NS(=O)(=O)c1cccc2c(Cl)nccc12` (stereo not drawn) [Compound (33), N-(2-guanidino-1-methylethyl)-1-chloro-5-isoquinolinesulfonamide], the EC50 in test [1] is 4 µM. Besides, the “ΔPmax (maximally reduced blood pressure)” value in test [2] (100 mg/kg) worked out at 51 mmHg. The like results for `CCCCC(CNC(=N)N)NS(=O)(=O)c1cccc2c(Cl)nccc12` (stereo not drawn) [Compound (34), N-(1-guanidinomethylpentyl)-1-chloro-5-isoquinolinesulfonamide] were, in that order, 8 µM and 45 mmHg. As for `CC(C)C(CNS(=O)(=O)c1cccc2c(Cl)nccc12)NC(=N)N` (stereo not drawn) [Compound (35), N-(2-guanidino-3-methylbutyl)-1-chloro-5-isoquinolinesulfonamide], the EC50 in test [1] came out at 8 µM. The “ΔPmax (maximally reduced blood pressure)” value in test [2] (100 mg/kg) is given as 33 mmHg. On to `CC(CNC(=N)N)CNS(=O)(=O)c1cccc2c(Cl)nccc12` (stereo not drawn) [Compound (36), N-(3-guanidino-2-methylpropyl)-1-chloro-5-isoquinolinesulfonamide], for which the EC50 in test [1] came to 7 µM. Moreover, the “ΔPmax (maximally reduced blood pressure)” value in test [2] (100 mg/kg) is 48 mmHg. The like results for `CC(CCNS(=O)(=O)c1cccc2c(Cl)nccc12)CNC(=N)N` (stereo not drawn) [Compound (37), N-(4-guanidino-3-methylbutyl)-1-chloro-5-isoquinolinesulfonamide] were, in that order, 11 µM and 31 mmHg.

Take `CC1CN(S(=O)(=O)c2cccc3c(Cl)nccc23)CCN1` (stereo not drawn) [Compound (38), 1-(1-chloro-5-isoquinolinesulfonyl)-3-methylpiperazine]: the EC50 in test [1] is 17 µM. In test [2] (100 mg/kg), the “ΔPmax (maximally reduced blood pressure)” value is given as 45 mmHg. The like results for `CCC1CN(S(=O)(=O)c2cccc3c(Cl)nccc23)CCN1` (stereo not drawn) [Compound (39), 1-(1-chloro-5-isoquinolinesulfonyl)-3-ethylpiperazine] were, in that order, 18 µM and 48 mmHg. `CC(C)CC1CN(S(=O)(=O)c2cccc3c(Cl)nccc23)CCN1` (stereo not drawn) [Compound (40), 1-(1-chloro-5-isoquinolinesulfonyl)-3-isobutylpiperazine]: the EC50 in test [1] is 13 µM. Moreover, the “ΔPmax (maximally reduced blood pressure)” value in test [2] (100 mg/kg) turned out to be 51 mmHg. The like results for `CC1CN(S(=O)(=O)c2cccc3c(Cl)nccc23)C(C)CN1` (stereo not drawn) [Compound (41), 1-(1-chloro-5-isoquinolinesulfonyl)-2,5-dimethylpiperazine] were, in that order, 14 µM and 39 mmHg.

Regarding `CN1CCN(S(=O)(=O)c2cccc3c(Cl)nccc23)CC1` [Compound (42), 1-(1-chloro-5-isoquinolinesulfonyl)-4-methylpiperazine], the EC50 in test [1] is 21 µM. The “ΔPmax (maximally reduced blood pressure)” value in test [2] (100 mg/kg) was 56 mmHg. `N=C(N)N1CCN(S(=O)(=O)c2cccc3c(Cl)nccc23)CC1` [Compound (43), 1-(1-chloro-5-isoquinolinesulfonyl)-4-amidinopiperazine]: the EC50 in test [1] was 2 µM. Further, the “ΔPmax (maximally reduced blood pressure)” value in test [2] (100 mg/kg) worked out at 32 mmHg. The like results for `N=C(N)N1CCCN(S(=O)(=O)c2cccc3c(Cl)nccc23)CC1` [Compound (44), 1-(1-chloro-5-isoquinolinesulfonyl)-4-amidinohomopiperazine] were, in that order, 4 µM and 25 mmHg.

Take `CCNCCNS(=O)(=O)c1cccc2c(Cl)nccc12` [Compound (71), N-(2-ethylaminoethyl)-1-chloro-5-isoquinolinesulfonamide]: in test [1], the EC50 was 12 µM. The same measure, in the same setting: then `CCCNCCNS(=O)(=O)c1cccc2c(Cl)nccc12` [Compound (72), N-(2-propylaminoethyl)-1-chloro-5-isoquinolinesulfonamide], with 11 µM; and `CCCCNCCNS(=O)(=O)c1cccc2c(Cl)nccc12` [Compound (73), N-(2-butylaminoethyl)-1-chloro-5-isoquinolinesulfonamide], with 8 µM; and `O=S(=O)(c1cccc2c(Cl)nccc12)N1CCNCC1` [Compound (75), 1-(1-chloro-5-isoquinolinesulfonyl)piperazine], with 1 µM. For `NCCNS(=O)(=O)c1cccc2cnccc12` [compound 1, reference compound], the “ΔPmax (maximally reduced blood pressure)” value in test [2] (100 mg/kg) came out at 31 mmHg. Same read-out and setting: to `CC1CN(S(=O)(=O)c2cccc3cnccc23)CCN1` (stereo not drawn) [compound 3, reference compound] belongs 10 mmHg.
